Results published in patent US9987327B2, “Methods for treating myocardial infarction comprising administering sonic hedgehog” (INSERM (INSTITUT NATIONAL DE LA SANTE ET DE EA RECHERCHE …, priority 2013, dated 2018).
Entries after “also recorded” stand apart in the source; their conditions may differ.

Columns and labels:
[1] = tested on: rat ventricular cardiomyocytes; test: Nitric oxide (NO) measurement, DAF fluorescence in cardiomyocytes; format: cell-based
[2] = tested on: rat ventricular cardiomyocytes; test: Ca2+ transient and cell shortening (sarcomere length, indo-1) under field stimulation; format: cell-based; conditions: co-incubation; for effect on reduction of cell shortening and Ca2+ transient amplitude induced by N-Shh: Ccl 30 μM, LY 25 μM, L-NNA 100 μM
[3] = tested on: rat ventricular cardiomyocytes; test: Action potential recording, whole-cell patch clamp; format: cell-based; conditions: for effect on APD reduction induced by N-Shh: glibenclamide 1 μM acute, L-NNA, ODQ
Procedure: Whole-cell patch-clamp experiments were performed at room temperature (22-24° C.) with an Axopatch 200B (Axon instrument, Burlingham, Calif., USA). Patch pipettes had resistance of 2 MΩ. Currents were normalized to the cell membrane capacitance (pA/pF). Series resistances were compensated before recordings.
To record APs, pipettes solution contained (in mM): KCl (130), HEPES (25), ATP(Mg) (3), GTP(Na) (0.4), EGTA (0.5); pH 7.2 (KOH). Bathing solution contained (in mmol/L): NaCl (135), MgCl2 (1), KCl (4), Glucose (11), HEPES (2), CaCl2 (1.8); pH 7.4 (NaOH). APs were elicited by 0.2 ms current injection of supra-threshold intensity. During experiments, cells were stimulated by trains of 30 stimuli at 0.5 Hz.

[4] = biological target: T1, ATP-dependent potassium current (IKATP) (Rattus norvegicus, UniProt P70673+Q63563); test: Glibenclamide-sensitive K+ current (IKATP), voltage clamp; format: cell-based
T1 construct: endogenous in cells; host or cells: isolated adult rat ventricular cardiomyocytes
T1 sequence (P70673 whole entry): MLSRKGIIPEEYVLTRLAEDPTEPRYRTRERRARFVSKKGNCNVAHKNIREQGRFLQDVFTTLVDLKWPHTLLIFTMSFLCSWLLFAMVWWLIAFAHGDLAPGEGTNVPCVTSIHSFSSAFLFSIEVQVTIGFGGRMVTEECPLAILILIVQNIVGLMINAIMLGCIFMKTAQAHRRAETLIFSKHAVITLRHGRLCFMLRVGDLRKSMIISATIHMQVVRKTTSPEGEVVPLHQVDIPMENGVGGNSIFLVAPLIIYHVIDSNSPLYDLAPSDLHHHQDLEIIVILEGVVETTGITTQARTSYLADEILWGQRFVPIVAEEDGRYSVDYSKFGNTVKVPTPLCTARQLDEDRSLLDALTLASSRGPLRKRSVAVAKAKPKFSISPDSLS
T1 sequence (Q63563 whole entry): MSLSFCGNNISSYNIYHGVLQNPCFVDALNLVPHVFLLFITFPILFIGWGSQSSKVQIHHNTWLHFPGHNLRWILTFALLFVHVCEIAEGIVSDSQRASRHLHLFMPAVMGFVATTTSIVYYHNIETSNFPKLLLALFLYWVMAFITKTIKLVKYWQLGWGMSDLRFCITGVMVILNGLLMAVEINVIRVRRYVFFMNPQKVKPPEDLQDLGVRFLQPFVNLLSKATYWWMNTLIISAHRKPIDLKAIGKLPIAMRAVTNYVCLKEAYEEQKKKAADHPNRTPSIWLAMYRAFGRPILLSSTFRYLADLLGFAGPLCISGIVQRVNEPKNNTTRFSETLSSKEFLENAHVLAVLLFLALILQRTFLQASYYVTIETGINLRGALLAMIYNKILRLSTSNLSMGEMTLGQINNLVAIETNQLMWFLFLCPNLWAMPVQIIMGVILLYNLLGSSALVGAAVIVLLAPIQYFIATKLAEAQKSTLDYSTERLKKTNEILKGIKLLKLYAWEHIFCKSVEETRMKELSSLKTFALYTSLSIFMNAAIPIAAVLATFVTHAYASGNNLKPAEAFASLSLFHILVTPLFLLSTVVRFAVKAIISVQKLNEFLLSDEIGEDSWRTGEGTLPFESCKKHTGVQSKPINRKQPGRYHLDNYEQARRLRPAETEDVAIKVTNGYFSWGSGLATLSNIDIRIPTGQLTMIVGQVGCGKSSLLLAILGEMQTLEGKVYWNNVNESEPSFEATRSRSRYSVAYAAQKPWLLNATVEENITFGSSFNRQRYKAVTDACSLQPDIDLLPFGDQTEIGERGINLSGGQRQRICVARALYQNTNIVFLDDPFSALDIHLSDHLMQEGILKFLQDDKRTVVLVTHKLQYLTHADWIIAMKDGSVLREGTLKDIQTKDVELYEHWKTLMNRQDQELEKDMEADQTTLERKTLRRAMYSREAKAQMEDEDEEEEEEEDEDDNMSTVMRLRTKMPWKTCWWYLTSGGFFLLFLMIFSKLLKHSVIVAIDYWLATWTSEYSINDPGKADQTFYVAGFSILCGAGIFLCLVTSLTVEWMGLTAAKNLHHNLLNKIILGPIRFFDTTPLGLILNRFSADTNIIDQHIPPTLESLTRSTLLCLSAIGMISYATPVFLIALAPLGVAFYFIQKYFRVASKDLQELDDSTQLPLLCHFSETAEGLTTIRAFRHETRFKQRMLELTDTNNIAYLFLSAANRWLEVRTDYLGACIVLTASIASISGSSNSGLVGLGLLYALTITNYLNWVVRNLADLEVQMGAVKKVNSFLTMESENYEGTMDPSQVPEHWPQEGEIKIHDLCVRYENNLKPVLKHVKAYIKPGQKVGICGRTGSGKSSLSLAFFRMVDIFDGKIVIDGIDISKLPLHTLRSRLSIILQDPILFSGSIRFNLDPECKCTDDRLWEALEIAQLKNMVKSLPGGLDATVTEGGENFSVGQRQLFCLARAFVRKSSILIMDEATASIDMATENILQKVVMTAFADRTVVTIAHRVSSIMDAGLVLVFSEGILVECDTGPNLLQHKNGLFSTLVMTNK

rats = test: Telemetric ECG, QTc interval before and 6 hours after i.v. injection; format: in vivo, rat; conditions: given with Shh
Procedure: (§1) Rats were implanted with DSI PhysioTel™ Transmitter (CTA-F40, Data Sciences International, Saint-Paul, Minn., USA), fifteen days before starting experiments. After recovery, ECGs were recorded by using a signal transmitter-receiver (RPC-1; DSI) connected to a data acquisition system (IOX2; EMKA Technologies). The data were collected continuously at a sampling rate of 1,000 Hz. Thus, ECGs were recorded in rats before and 6 hours after i.v. injection of Shh, Shh and hexamethonium, MPs, Shh and cyclopamine, Shh and glibenclamide. ECGs were also monitored 24 h before ischemia, during ischemia and 24 h after reperfusion. Continuous digital recordings were analyzed offline by using the software ECG-auto (ver 1.5.12.22, EMKA Technologies). ECG signals were digitally filtered between 0.1 and 1,000 Hz. The heart rate and QT interval were measured. The QT interval was defined as the time between the first deviation from an isoelectric PR interval until the return of the ventricular repolarisation to the isoelectric TP baseline from lead II ECGs. The QT interval is dependent on the heart rate, therefore, QT interval should be corrected to take into account potential changes in RR interval. The QT correction was performed according to the Bazett's: formula: […]
where QTB is the QT interval corrected for heart rate, and RR is the interval from the onset of one QRS complex to the onset of the next QRS complex.

[5] = tested on: rat model of ischemia reperfusion; test: ECG (QTc, ventricular arrhythmias) after 30 min ischemia and 24 h reperfusion; format: in vivo
Procedure: as §1, with “ECGs.” for “ECGs. The QT interval is dependent on the heart rate, therefore, QT interval should be corrected to take into account potential changes in RR interval. The QT correction was performed according to the Bazett's: formula:”
The rats were subjected to 30 min ischemia followed by reperfusion. The reperfusion injuries were histologically evaluated at 24 h after reperfusion by measuring the infarcted area relative to the area at risk (FIG. 9). […]

[6] = tested on: rat model of ischemia reperfusion; test: Infarct size (infarcted area relative to area at risk) 24 h after reperfusion; format: in vivo; conditions: cyclopamine with N-Shh
Procedure: The rats were subjected to 30 min ischemia followed by reperfusion. The reperfusion injuries were histologically evaluated at 24 h after reperfusion by measuring the infarcted area relative to the area at risk (FIG. 9). Fifteen minutes prior to reperfusion, one group of rats received intravenous (iv) injection of the recombinant Shh homolog ligand (N-ShhH, 25 μg·kg^−1), the second group received N-Shh and the Shh receptor (patch/smoothened) antagonist cyclopamine (N-Shh+Ccl, 30 μmol/L) and the third one the vehicle (control). […] Considering that the cardio-protective effects are observed within a short time after reperfusion (i.e. <24 h), it is unlikely that they are mediated by a neoangiogenesis and/or mobilization of progenitor cells (Kusano K F, Pola R, Murayama T, Curry C, Kawamoto A, Iwakura A, Shintani S, Ii M, Asai J, Tkebuchava T, Thorne T, Takenaka H, Aikawa R, Goukassian D, von Samson P, Hamada H, Yoon Y S, Silver M, Eaton E, Ma H, Heyd L, Kearney M, Munger W, Porter J A, Kishore R and Losordo D W. Sonic hedgehog myocardial gene therapy: tissue repair through transient reconstitution of embryonic signaling. Nat Med. 2005; 11:1197-204. […]

[7] = tested on: rat model of ischemia reperfusion; test: Left ventricular fibrosis, Masson trichrome histology 24 h after reperfusion; format: in vivo
Procedure: Thin sections (5 μm) were prepared from the rat left ventricles and stained with Haematoxylin-Eosin (HE) and Masson trichrome (MT) for light microscopy (10×). The thickening of the myocardium was estimated on the HE-stained heart sections, and the presence of collagen was analyzed on the MT-stained ventricle sections.

Row | SMILES | effect on reduction of cell shortening and Ca2+ transient amplitude induced by N-Shh [2] | effect on APD reduction induced by N-Shh [3] | effect on IKATP elicited by N-Shh [4] | effect on the reduction in QTc interval after Shh injection (rats) | further results
1 | N=C(NCCC[C@H](N)C(=O)O)N[N+](=O)[O-] [L-NNA, N^ω-nitro-L-arginine] | fully abolished | blunted | blocked | – | effect on N-Shh-induced NO production ([1]; co-incubation with N-Shh, L-NNA 100 μM, LY 25 μM): prevented
2 | O=c1onc2cnc3ccccc3n12 [ODQ, 1H-[1.2.4]oxadiazolo[4.3-a]quinoxalin-1-one] | – | blunted | blocked | – | –
3 | CC1=C2C[C@H]3[C@@H](CC=C4C[C@@H](O)CC[C@@]43C)[C@@H]2CC[C@]12O[C@@H]1C[C@H](C)CN[C@H]1[C@H]2C [cyclopamine] | fully abolished | – | – | prevented | NO production (DAF fluorescence) vs control ([1]; cardiomyocytes incubated 4 h): no effect; effect on NO production induced by Shh-harboring MPs ([1]; pre-/co-incubation, cyclopamine 30 μM): prevented; effect on reduction of cell shortening and Ca2+ transient induced by shed membrane MPs ([2]; cyclopamine 30 μM): blocked; effect on N-Shh prevention of QTc enlargement ([5]; cyclopamine injected in addition to N-Shh): No beneficial effect; also recorded: abolished; effect on Shh reduction of ventricular arrhythmic events ([5]; cyclopamine with N-Shh): abolished; effect on cardioprotective (infarct-reducing) effect of N-Shh [6]: fully abolished; also recorded: fully prevented; effect on Shh prevention of fibrosis [7]: abolished
4 | COc1ccc(Cl)cc1C(=O)NCCc1ccc(S(=O)(=O)NC(=O)NC2CCCCC2)cc1 [glibenclamide] | – | prevented | – | prevented | effect on APD in the absence of N-Shh treatment ([3]; acute application): no effect
5 | C[N+](C)(C)CCCCCC[N+](C)(C)C [hexamethonium] | – | – | – | identical | –
